Assay results taken from US20070092551A1, “Therapeutic agent” (TAKARA BIO INC., priority 2003, published 2007).
Read-outs that look alike come from different tables or passages of the source.

How the values were obtained:
3T3-L1 cells = assay: Induction of adipocyte differentiation (amount of triglyceride biosynthesis); type: cell-based; conditions: Mus musculus
Procedure, shortened: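 3T3-L1 cells were grown 7 days in DMEM/10% FBS/200 μM ascorbic acid, then given test compound with 0.25 μM dexamethasone for 45 h, then compound alone for 7 days, re-dosed at medium changes. Hexane:isopropanol-extracted triglyceride was measured in duplicate; X=(S−N)/(P−N) versus DMSO (N) and insulin (P), ranked +++ to +/−.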

[1] = Toxicity test, forcible oral administration for 3 consecutive days; type: in vivo; conditions: female ICR mice, 1 g/kg forcibly orally once a day for 3 days, in CMC or olive oil
Protocol: The influence of 4-hydroxyderricin and xanthoangelol by forcible oral administration for 3 consecutive days was examined using female 12-week old ICR mice (Japan SLC, Inc.). 4-Hydroxyderricin or xanthoangelol was suspended or dissolved in a 0.5% (w/v) carboxymethyl cellulose solution (CMC) or an olive oil so as to have a concentration of 20% (w/v). The suspension or solution was forcibly orally administered once a day for 3 days in an amount of 5 mL per 1 kg body weight (1 g/kg in terms of 4-hydroxyderricin or xanthoangelol). Three cases were used for each group.

[2] = tested on: type II diabetes model mice; assay: Suppressive effects on incidence of diabetes (blend feed); type: in vivo, KK-Ay mice; conditions: 0.15% blend feed; for Blood Glucose Level, Previous Day: male 5-week old KK-Ay mice, day before beginning of administration; for Blood Glucose Level, Previous Day / Amount of Drunk Water, Ninth to Fifteenth Day / Amount of Drunk Water, Second to Eighth Day / Blood Glucose Level, Fifteenth Day: mean ± standard error; for effects for suppressing the incidence of diabetes (in words) / changes in body weight, amount of feed taken and general symptoms / Amount of Drunk Water, Ninth to Fifteenth Day / Amount of Drunk Water, Second to Eighth Day / Blood Glucose Level, Fifteenth Day: male KK-Ay mice; for changes in body weight, amount of feed taken and general symptoms: experimental period
Protocol: The suppressive effects of xanthoangelol and 4-hydroxyderricin on incidence of diabetes were examined using type II diabetes model mice. Experiments were carried out with seven male 5-week old KK-Ay mice (CLEA Japan, Inc.) per group. Xanthoangelol and 4-hydroxyderricin were each mixed in a powder feed (CE-2: CLEA Japan, Inc.) so as to have a ratio of 0.15%, and the mice were fed with the blended power feed. The mice in the control group were fed with the powder feed (CE-2). On the day before the beginning of administration, and on the fifteenth day, the blood glucose level was determined in the same manner as in Example 88. In addition, as an index of the incidence of diabetes, amounts of drunk water from the second to eighth days and from the ninth to fifteenth days from the administration were determined, and an average amount of drunk water per day was calculated, respectively. By administration of a mixed feed with xanthoangelol or 4-hydroxyderricin, the suppression of increase in a blood glucose level was found. Further, the suppression of increase in the amount of drunk water which is an index of the incidence of diabetes was found. […] During the experimental period, no changes were found in body weight, amount of feed taken and general symptoms.

[3] = 3T3-L1, read-out: Action for Induction of Differentiation
[4] = 3T3-L1, X=(S−N)/(P−N) of amount of triglyceride, P=insulin positive control, read-out: Action for Induction of Differentiation
[5] = 3T3-L1, 3 μM, X=(S−N)/(P−N) of amount of triglyceride, P=insulin positive control, read-out: Action for Induction of Differentiation
[6] = 3T3-L1, 10 μM, X=(S−N)/(P−N) of amount of triglyceride, P=insulin positive control, read-out: Action for Induction of Differentiation

Row | Structure (SMILES) | activation at 3 µM (3T3-L1 cells; [3]) | activation at 10 µM (3T3-L1 cells; [3]) | cases of death [1] | change in general symptom [1] | Blood Glucose Level, Previous Day [2] | effects for suppressing the incidence of diabetes (in words) [2] | changes in body weight, amount of feed taken and general symptoms [2] | Amount of Drunk Water, Ninth to Fifteenth Day [2] | Amount of Drunk Water, Second to Eighth Day [2] | Blood Glucose Level, Fifteenth Day [2] | activation at 1 µM (3T3-L1 cells; [4]) | activation at 3 µM (3T3-L1 cells; [5]) | activation at 10 µM (3T3-L1 cells; [6]) | activation at 1.3 µM (3T3-L1 cells; 3T3-L1, 1.3 μM, X=(S−N)/(P−N) of amount of triglyceride, P=insulin positive control, read-out: Action for Induction of Differentiation) | activation at 4 µM (3T3-L1 cells; 3T3-L1, 4 μM, X=(S−N)/(P−N) of amount of triglyceride, P=insulin positive control, read-out: Action for Induction of Differentiation) | activation at 13 µM (3T3-L1 cells; 3T3-L1, 13 μM, X=(S−N)/(P−N) of amount of triglyceride, P=insulin positive control, read-out: Action for Induction of Differentiation)
1 | COc1ccc(C(=O)/C=C/c2ccc(O)cc2)c(O)c1CC=C(C)C [4-Hydroxyderricin, 4,2′-Dihydroxy-3′-prenyl-4′-methoxychalcone] | 60 to 100% | > 100% | No cases of death | no change | 226 ± 14 mg/dL | effects for suppressing the incidence of diabetes was found | no changes | 10.0 ± 0.6 mL/day | 7.6 ± 0.2 mL/day | 354 ± 24 mg/dL | – | – | – | – | – | –
2 | COc1ccc(C(=O)/C=C/c2ccc(O)cc2)c(O)c1C/C=C(\C)CCC=C(C)C [Xanthoangelol F, 4,2′-Dihydroxy-3′-geranyl-4′-methoxychalcone] | – | – | – | – | – | – | – | – | – | – | 60 to 100% | > 100% | > 100% | – | – | –
3 | COc1ccc(C(=O)/C=C/c2ccc(O)cc2)c2c1CC(O)C(C)(C)O2 (stereo not drawn) [Xanthoangelol H] | – | – | – | – | – | – | – | – | – | – | – | – | – | 30 to 60% | 60 to 100% | > 100%
4 | CC(C)=CCC/C(C)=C/Cc1c(O)ccc(C(=O)/C=C/c2ccc(O)cc2)c1O [Xanthoangelol, 4,2′,4′-Trihydroxy-3′-geranylchalcone] | – | – | No cases of death | no change | 232 ± 11 mg/dL | effects for suppressing the incidence of diabetes was found | no changes | 14.6 ± 2.0 mL/day | 10.3 ± 1.3 mL/day | 426 ± 39 mg/dL | 15 to 30% | 60 to 100% | > 100% | – | – | –
